Measurements: patent US20230068020A1, “MACROLIDE COMPOUND AND ITS USE OF TREATMENT CHRONIC RESPIRATORY DISEASE” (priority 2020, published 2023)
Converted amounts (≈) assume the structure as drawn.

How the values were obtained:
Type in all cases: cell-based
[1] = test system: Acinetobacter baumanii ATCC 17978; assay: Antibacterial activity, agar dilution MIC; conditions: Acinetobacter baumannii, ATCC17978, 20-24 hrs incubation, read-out: minimum inhibitory concentration MIC
Experimental: (§1) The antibacterial activity of Erythromycin and compounds of examples were evaluated by the agar dilution method, following the guidelines of the CLSI. […] Briefly, bacteria were grown overnight in adapted media (MHIIA with 5% of sheep blood for Streptococcus pneumoniae and Haemophilus influenzae, and MHIIA for the other bacteria strains) at 35° C., 5% CO2.
(§2) Cultures were centrifuged at 3000×g for 15 min. Pellets were diluted with 5 mls cold PBS and the OD600nm was adjusted to 10^8 CFU.mL^−1 with a spectrometer. Bacteria were then added to 96-well test plates. Compounds were diluted in DMSO in a 2 fold steps from 20 mg/ml in DMSO in 96 well plated and transferred to the test plate. During the incubation, the plate was maintained at 35° C., 5% CO2.
(§3) The MICs for Erythromycin and compounds of examples were determined after 20-24 hrs incubation.

[2] = test system: Acinetobacter baumannii ATCC-BAA-1605; assay: Antibacterial activity, agar dilution MIC; conditions: ATCCBAA1605, 20-24 hrs incubation, read-out: minimum inhibitory concentration MIC
Experimental: as §1, §2, §3

[3] = test system: Enterococcus faecalis ATCC 29212; assay: Antibacterial activity, agar dilution MIC; conditions: ATCC29212, 20-24 hrs incubation, read-out: minimum inhibitory concentration MIC
Experimental: as §1, §2, §3

[4] = test system: Haemophilus influenzae ATCC 49247; assay: Antibacterial activity, agar dilution MIC; conditions: ATCC49247, 20-24 hrs incubation, read-out: minimum inhibitory concentration MIC
Experimental: as §1, §2, §3

[5] = test system: Moraxella catarrhalis ATCC 43617; assay: Antibacterial activity, agar dilution MIC; conditions: ATCC43617, 20-24 hrs incubation, read-out: minimum inhibitory concentration MIC
Experimental: as §1, §2, §3

[6] = test system: Staphylococcus aureus ATCC 29213; assay: Antibacterial activity, agar dilution MIC; conditions: ATCC29213, 20-24 hrs incubation, read-out: minimum inhibitory concentration MIC
Experimental: as §1, §2, §3

[7] = test system: Staphylococcus aureus NRS 384; assay: Antibacterial activity, agar dilution MIC; conditions: NRS384, 20-24 hrs incubation, read-out: minimum inhibitory concentration MIC
Experimental: as §1, §2, §3

[8] = test system: Streptococcus pneumoniae ATCC 49619; assay: Antibacterial activity, agar dilution MIC; conditions: ATCC49619, 20-24 hrs incubation, read-out: minimum inhibitory concentration MIC
Experimental: as §1, §2, §3

[9] = test system: Streptococcus pneumoniae ATCC 6301; assay: Antibacterial activity, agar dilution MIC; conditions: ATCC6301, 20-24 hrs incubation, read-out: minimum inhibitory concentration MIC
Experimental: as §1, §2, §3

[10] = test system: Streptococcus pyogenes ATCC BAA-572; assay: Antibacterial activity, agar dilution MIC; conditions: ATCCBAA572, 20-24 hrs incubation, read-out: minimum inhibitory concentration MIC
Experimental: as §1, §2, §3

[11] = test system: THP-1 cell; assay: Differentiation of monocyte to macrophage in THP-1 cell line; conditions: for EC50: THP-1 differentiate to macrophage, PMA, 96 hrs incubation; for Emax / Maximal activation level: ratio of best effect of compound to that of erythromycin 100 uM, THP-1 differentiation; for Emax: read-out: Maximal activation level
Experimental: The THP-1 cell line was purchased from ATCC (American Type Culture Collection, Manassas, Va.). Cells were maintained in growth medium (RPMI-1640) with supplemented with 10% heat inactivated bovine serum, 100× Glutamax medium and 0.05 mM β-Mercaptoethanol at 37° C. under 5% CO2. Compounds were dissolved in 0.1% DMSO. Erythromycin was used as a positive control.
For the assessment of the effect of compounds of the present invention on differentiation of monocyte to macrophage in THP-1 cell line, cells were collected and centrifuged at 900 rpm for 4 minutes. The cell density was adjusted to 2.5×10^5/mL. cell suspension of 400 μL was added to each well of 48-well plate following the plate layout. PMA 1 mg, a compound can induce monocyte differentiation, was dissolved in 10 mL DMSO to form 100 μg/mL solution and aliquote it into 1 mL per vial. 1 mL solution can be further aliquoted into 10 μL per vial and stored the aliquots at −20° C. Make 10-fold dilution of PMA with DMSO and then 500-fold dilution with complete medium. 50 μL solution were then added to each well of 48-well plate following the plate layout. Erythromycin and compounds of examples at stock concentration of 10 mM was serially diluted at 10-fold in DMSO. 50 μL solution was added to each well of 48-well plate following the plate layout. After 96 hrs incubation at 37° C., 5% CO2, the plate was washed with DPBS for three times to remove non-adherent cells for three times. Complete medium 180 μL and alarmar blue 20 μL was added to each well. The fluorescent intensity was read at excitation 530 nm and emission 590 nm using PerkinElmer Victor3 after 3 hours plate incubation.
The differentiation activity of compounds of Examples is compared to that of 100 μM erythromycin and the results are shown in FIG. 1 and Table 3.

[12] = test system: THP-1 cell; assay: Cell viability (LD50) in THP-1 differentiation test
Experimental: The medium lethal dose (LD50) is the dosage of a compound that reduces the cell viability by 50%, and is determined using non-linear logistic regression.

[13] = test system: IL-8 expression in BEAS-2B cell; assay: LPS induced IL-8 release by BEAS-2B (ELISA); conditions: for Maximum Inhibition: IL-8 expression in BEAS-2B cells, LPS; for IC10: concentration inhibiting IL-8 production on BEAS-2B by 10%, LPS 20 μg/mL
Experimental: The inhibitory effect of compounds of Examples on the IL-8 expression in BEAS-2B cell was tested using the following method. BEAS-2B was purchased from ATCC (American Type Culture Collection, Manassas, Va.). Cells were maintained in growth medium (LHC-9) and cultured at 37° C. under 5% CO2. Compounds were dissolved in 0.1% DMSO. Erythromycin was used as a positive control.
For the assessment of the effect of compounds of Examples on IL-8 expression inhibition in BEAS-2B cell line, cells were plated in 24 well plate at a density of 100,000/mL, in a final volume of 1 mL of assay medium. Cells were incubated at 37° C., 5% CO2 for 1 day. After the incubation, compounds were added at day 2 and LPS was added at day 3. A compound source plate was prepared by triplicate five-point 10-fold or 2-fold serial dilutions in DMSO, beginning at 1 mM (final top concentration of compounds of Examples in the assay was 100 μM and the DMSO was 0.1%). The positive control consisted of cells treated with 100 μM erythromycin and negative control was consisted of 0.1% DMSO treated cells. LPS stock solution at 5 mg/mL was made by dissolving 10 mg of LPS powder into 2 mL of ddH2O and aliquoted to 100 μL per vial. Final concentration of LPS in the assay was […] by making 125-fold dilution of stock solution with medium.
Specific immunoreactivity for IL-8 in culture supernatants were measured by a commercially available ELISA kits (R&D Systems, Inc., Minneapolis, Minn.). Each sample was assayed in duplicates as recommended by the manufacture. The concentration of compounds of Examples inhibiting IL-8 production on BEAS-2B by 10% was estimated from a 4-parametric of the normalized dose response curve. (IC10)

[14] = test system: BEAS-2B cell; assay: Cell viability (LD10) in BEAS-2B IL-8 test; conditions: BEAS-2B cell viability
Text: The lethal dose (LD10) is the dosage of a compound that reduces the cell viability by […], and is estimated from non-linear logistic regression.

[15] = dosage that reduces the cell viability by 50%, THP-1

## CC[C@H]1OC(=O)[C@H](C)[C@@H](O[C@H]2C[C@@](C)(OC)[C@@H](O)[C@H](C)O2)[C@H](C)[C@@H](O[C@H]2C[C@@H](N(C)C)C[C@@H](C)O2)[C@](C)(O)C[C@@H](C)C(=O)[C@H](C)[C@@H](O)[C@]1(C)O [LY101-2, (3R,4S,5S,6R,9R,11R,12R,13S,14R)-6-(((2S,4S,6R)-4-(dimethylamino)-6-methyltetrahydro-2H-pyran-2-yl)oxy)-14-ethyl-7,12,13-trihydroxy-4-(((2R,4R,5S,6S)-5-hydroxy-4-methoxy-4,6-dimethyltetrahydro-2H-pyran-2-yl)oxy)-3,5,7,9,11,13-hexamethyloxacyclotetradecane-2,10-dione]
[1]
  MIC: > 128 µg/mL
[2]
  MIC: > 128 µg/mL
[3]
  MIC: > 128 µg/mL
[4]
  MIC: > 128 µg/mL
[5]
  MIC: > 128 µg/mL
[6]
  MIC: 64 µg/mL (≈ 89.1 µM)
[7]
  MIC: > 128 µg/mL
[8]
  MIC: 16 µg/mL (≈ 22.3 µM)
[9]
  MIC: 64 µg/mL (≈ 89.1 µM)
[10]
  MIC: 64 µg/mL (≈ 89.1 µM)
[11]; Homo sapiens
  EC50: 0.3 ± 0.03 µM
  Emax: 650 ± 170%
[12]; human
  LD50: 4.6 ± 1.3 µM

## CC[C@H]1OC(=O)[C@H](C)[C@@H](OC2CC(C)(OC)C(O)C(C)O2)[C@H](C)[C@@H](OC2CC(NC)CC(C)O2)[C@@]2(C)CC(C)=C(O2)[C@H](C)[C@@H](O)[C@]1(C)O (stereo partly shown) [LY101-6]
[11]
  EC50: 11.5 ± 3.2 µM
  Maximal activation level: 3.9 ± 0.8
[12]; [15]
  LD50: 103.2 ± 11.4 µM

## CC[C@H]1OC(=O)[C@H](C)[C@@H](OC2CC(C)(OC)C(O)C(C)O2)[C@H](C)[C@@H](OC2CC(N(C)C(C)C)CC(C)O2)[C@@]2(C)CC(C)=C(O2)[C@H](C)[C@@H](O)[C@]1(C)O (stereo partly shown) [LY101-24]
[11]
  EC50: 6.8 ± 1.4 µM
  Maximal activation level: 7.0 ± 1.6
[12]; [15]
  LD50: 56.9 ± 14.0 µM
[13]
  Maximum Inhibition: 42%
  IC10: 10 µM
[14]
  LD10: 50 µM

## CC[C@H]1OC(=O)[C@H](C)[C@@H](OC2CC(C)(OC)C(O)C(C)O2)[C@H](C)[C@@H](OC2CC(N(C)C(C)=O)CC(C)O2)[C@@]2(C)CC(C)=C(O2)[C@H](C)[C@@H](O)[C@]1(C)O (stereo partly shown) [LY101-27]
[11]
  EC50: 12.2 ± 4.6 µM
  Maximal activation level: 5.3 ± 1.5
[12]; [15]
  LD50: 121.1 ± 7.8 µM
[13]
  Maximum Inhibition: 40%
  IC10: 10 µM
[14]
  LD10: 100 µM

## CC[C@H]1OC(=O)[C@H](C)[C@@H](OC2CC(C)(OC)C(O)C(C)O2)[C@H](C)[C@@H](OC2CC(N(C)C)CC(C)O2)[C@@](C)(O)CC(C)[C@H](N)[C@H](C)[C@@H](O)[C@]1(C)O (stereo partly shown) [LY101-30]
[11]; Homo sapiens
  EC50: 36.8 ± 20.1 µM
  Emax: 610 ± 120%
[12]; human
  LD50: 65.3 ± 7.1 µM

## CC[C@H]1OC(=O)[C@H](C)[C@@H](OC2CC(C)(OC)C(O)C(C)O2)[C@H](C)[C@@H](OC2CC(NC)CC(C)O2)[C@@](C)(O)C[C@@H](C)[C@H](O)[C@H](C)[C@@H](O)[C@]1(C)O (stereo partly shown) [LY101-31]
[11]; Homo sapiens
  EC50: 32.8 ± 2.5 µM
  Emax: 620 ± 150%
[12]; human
  LD50: 115.0 ± 10.4 µM

## CC[C@H]1OC(=O)[C@H](C)[C@@H](OC2CC(C)(OC)C(O)C(C)O2)[C@H](C)[C@@H](OC2CC(N(C)C(C)=O)CC(C)O2)[C@@](C)(O)C[C@@H](C)[C@H](O)[C@H](C)[C@@H](O)[C@]1(C)O (stereo partly shown) [LY101-33]
[11]; Homo sapiens
  EC50: 22.6 ± 5.7 µM
  Emax: 314 ± 1%
[12]; human
  LD50: 110.0 ± 12.1 µM
[13]
  Maximum Inhibition: 25%
  IC10: 20 µM
[14]
  LD10: 60 µM

## CC[C@H]1OC(=O)[C@H](C)[C@@H](O)[C@H](C)[C@@H](OC2CC(N(C)C)CC(C)O2)[C@@](C)(O)C[C@@H](C)/C(=N\OCOCCOC)[C@H](C)[C@@H](O)[C@]1(C)O (stereo partly shown) [LY101-40]
[11]; Homo sapiens
  EC50: 106 µM
  Emax: 180%
[12]; human
  LD50: 100 µM

## CC[C@H]1OC(=O)[C@H](C)[C@@H](OC2CC(C)(OC)C(O)C(C)O2)[C@H](C)[C@@H](OC2CC(N(C)C)CC(C)O2)[C@@](C)(O)C[C@@H](C)CN(C)[C@H](C)[C@@H](O)[C@]1(C)O (stereo partly shown) [LY101-44]
[11]; Homo sapiens
  EC50: 1.2 ± 0.2 µM
  Emax: 450 ± 90%
[12]; human
  LD50: 20.4 ± 8.4 µM

## CC[C@H]1OC(=O)[C@H](C)[C@@H](OC2CC(C)(OC)C(O)C(C)O2)[C@H](C)[C@@H](OC2CC(N(C)C(C)C)CC(C)O2)[C@@](C)(O)C[C@@H](C)CN(C)[C@H](C)[C@@H](O)[C@]1(C)O (stereo partly shown) [LY101-47]
[11]; Homo sapiens
  EC50: 4.3 ± 1.8 µM
  Emax: 310 ± 110%
[12]; human
  LD50: 64.7 ± 17.9 µM

## CC[C@H]1OC(=O)[C@H](C)[C@@H](OC2CC(C)(OC)C(O)C(C)O2)[C@H](C)[C@@H](OC2CC(N(C)C(C)=O)CC(C)O2)[C@@](C)(O)C[C@@H](C)CN(C)[C@H](C)[C@@H](O)[C@]1(C)O (stereo partly shown) [LY101-48]
[11]; Homo sapiens
  EC50: 18.5 ± 4.2 µM
  Emax: 420 ± 110%
[12]; human
  LD50: 111.0 ± 13.6 µM
